The experiment has as its system 633275-114-R-J1-PDC complex spheroids, viability. Kind of experiment: Anticancer human tumor 633275-114-R-J1-PDC patient-derived endometrial adenocarcinoma cell line growth inhibition [GQUAD]. Conditions: for viability, T/C: stronger effect = lower value. From the text: DNA G-quadruplex Stabilizer Agents in Combinations in Complex Spheroids
A high-throughput screen of multi-cell type tumor spheroids was designed to identify active combinations of DNA G-quadruplex stabilizer agents and targeted small molecules. Complex spheroids include a stromal component modeled by human endothelial cells (HUVEC) and fibroblasts modeled by human mesenchymal stem cells (MSCs). The concentration ranges selected for each drug and investigational agent were based upon clinically achievable concentrations if the clinical Cmax of the agent was known.
Compounds. The drugs and investigational agents: pidnarulex (CX-5461; NSC782164), APTO-253 (NSC789042), BRACO-19 (NSC847499), peposertib (NSC802822), ceralasertib (NSC780249), elimusertib (NSC800525), camonsertib (NSC841442), AZD-1390 (NSC803789), olaparib (NSC753686), talazoparib (NSC767125), ART-558 (NSC835418), sotorasib (NSC818433), MRTX-1133 (NSC836407), SN-38 (NSC673596), topotecan (NSC609699), etoposide (NSC141540), doxorubicin (NSC123127), gemcitabine (NSC613327), 5-fluorouracil (NSC19893), paclitaxel (NSC125973), vemurafenib (NSC761431), panobinostat (NSC761190), R-306465 (JNJ-16241199; NSC773264), adavosertib (NSC754352), TP-3654 (NSC805149), carboplatin (NSC241240), KSQ-4279 (NSC840948), and staurosporine (NSC755774) were obtained from the National Cancer Institute (NCI) Developmental Therapeutics Program Chemical Repository (34). The FDA-approved anticancer drug set is available from the NCI Developmental Therapeutics Program. […] The stock solutions were prepared in dimethyl sulfoxide (DMSO, Sigma-Aldrich, St. Louis, MO, cat. D2650) at 800-fold the tested concentration and stored at -70 degrees C prior to their use. All drugs and investigational agents were tested over a range starting from a high concentration at or near the clinical Cmax and decreasing in half-log increments. If the clinical Cmax for an agent had not been determined, the highest concentration tested was 10 microM.
2.3 Cell Culture. All cells were maintained in an incubator at 37 degrees C and 5% CO2 with 95% humidity. The PDC lines were cultured according to standard operating procedures established by the NCI PDMR. All PDCs were thawed and cultured in Matrigel-coated flasks prepared with a working solution of 1X Ham's F-12 nutrient mix, without supplementation (Invitrogen, cat. 11765054), 100 U/mL penicillin-streptomycin (Invitrogen, cat. 15140122), and 2.5% Matrigel (Corning Inc., cat. 354248) for the first three passages. The 857933-349-R-J2-PDC line was cultured in 6C/Colon 1B media, which includes advanced DMEM/F-12 (Thermo Fisher Scientific, cat. 12634028), 10 mM HEPES (Thermo Fisher Scientific, cat. 15630080), 1X GlutaMAX supplement (Thermo Fisher Scientific, cat. 35050061), 0.1 mg/mL primocin (InvivoGen, cat. ant-pm-2), 10% defined fetal bovine serum, heat inactivated (HyClone Laboratories Inc., cat. SH30070.03HI), 50% L-WRN conditioned media (ATCC, cat. CRL-3276), 1.25 mM N-Acetyl-L-cysteine (Sigma-Aldrich, cat. A9165), 10 mM nicotinamide (Sigma-Aldrich, cat. N0636), 1X B-27 supplement (Thermo Fisher Scientific, cat. 17504044), 1X N-2 supplement (Thermo Fisher Scientific, cat. 17502048), 10 microM Y-27632 dihydrochloride (Tocris Bioscience, cat. 1254), and 50 ng/mL human EGF recombinant protein (Thermo Fisher Scientific, cat. PHG0311). The 485176-168-R4-J1-PDC line was cultured in Panc media, which includes all 6C/Colon 1B media components plus 100 ng/mL human FGF-10 (Thermo Fisher Scientific, cat. 100-26), 500 nM SB-431542 (Selleckchem, cat. S1067), and gastrin (Tocris, cat. 3006).
[…]

Drawing on PubChem BioAssay AID2060505 (Molecular Pharmacology Branch, DTP, NCI, 2025), this text covers viability, T/C and IC50 for 5 compounds.

Each structure is given as a SMILES string. pIC50: −log10 of the molar value. Values joined by “and” are separate entries in the source; they are usually repeats but may differ in a detail not shown here. Identical values can stand only once. Bounds are passed on as bounds.
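Note: spheroids exposed to the agents for seven days.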
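Throughout, for viability, T/C: percent of DMSO vehicle control viability which is 100%.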

Turning to `COc1ccc([C@@H](O)c2cc(-c3ncnc4cc(N5CCOCC5)ccc34)c(F)cc2Cl)nn1`, the viability, T/C (compound 0.0316 µM) was 94.5% and 95% and 93.8%; the viability, T/C (compound 0.1 µM) was 98.8% and 89.7% and 92.3%; the viability, T/C (compound 0.316 µM) was 85.5% and 89.3% and 86.5%; the viability, T/C (compound 1 µM) is 73.6% and 74.7% and 67.5%; the viability, T/C (compound 3.16 µM) is 54.6% and 53.4% and 53.7%; the viability, T/C (compound 10 µM) was 35.3% and 42.5% and 31.2%. Besides, the pIC50 (curve of compound) is 5.39 and 5.34 and 5.46.
For `CC[C@@]1(O)C(=O)OCc2c1cc1n(c2=O)Cc2cc3c(CN(C)C)c(O)ccc3nc2-1` + CN(C)c1ccc(Nc2c3ccc(NC(=O)CCN4CCCC4)cc3nc3cc(NC(=O)CCN4CCCC4)ccc23)cc1, the pIC50 was 7.15 (curve of first compound, second compound 0.0316 µM); 7.14 (curve of first compound, second compound 0.1 µM); 7.09 (curve of first compound, second compound 0.316 µM); 7.24 (curve of first compound, second compound 1 µM); 7.32 (curve of first compound, second compound 3.16 µM); over 9.00 (curve of first compound, second compound 10 µM). Further, the viability, T/C is 96.1% (second compound 0.0316 µM, first compound 0.000999 µM); 105% (second compound 0.0316 µM, first compound 0.00316 µM); 98.3% (second compound 0.0316 µM, first compound 0.00999 µM); 75.2% (second compound 0.0316 µM, first compound 0.0316 µM); 39.7% (second compound 0.0316 µM, first compound 0.0999 µM); 35.9% (second compound 0.0316 µM, first compound 0.316 µM). Further, the viability, T/C by setting is: (second compound 0.1 µM, first compound 0.000999 µM) 93.4%; (second compound 0.1 µM, first compound 0.00316 µM) 101%; (second compound 0.1 µM, first compound 0.00999 µM) 99%; (second compound 0.1 µM, first compound 0.0316 µM) 74.1%; (second compound 0.1 µM, first compound 0.0999 µM) 42%; (second compound 0.1 µM, first compound 0.316 µM) 36%. Further, the viability, T/C is 101% (second compound 0.316 µM, first compound 0.000999 µM); 104% (second compound 0.316 µM, first compound 0.00316 µM); 85.5% (second compound 0.316 µM, first compound 0.00999 µM); 72.9% (second compound 0.316 µM, first compound 0.0316 µM); 42.6% (second compound 0.316 µM, first compound 0.0999 µM); 36.3% (second compound 0.316 µM, first compound 0.316 µM). In addition, the viability, T/C by setting is: (second compound 1 µM, first compound 0.000999 µM) 98%; (second compound 1 µM, first compound 0.00316 µM) 88.6%; (second compound 1 µM, first compound 0.00999 µM) 91.2%; (second compound 1 µM, first compound 0.0316 µM) 64.8%; (second compound 1 µM, first compound 0.0999 µM) 36.7%; (second compound 1 µM, first compound 0.316 µM) 35%. The viability, T/C was 82.3% (second compound 3.16 µM, first compound 0.000999 µM); 82% (second compound 3.16 µM, first compound 0.00316 µM); 80.7% (second compound 3.16 µM, first compound 0.00999 µM); 54% (second compound 3.16 µM, first compound 0.0316 µM); 40.6% (second compound 3.16 µM, first compound 0.0999 µM); 27% (second compound 3.16 µM, first compound 0.316 µM). Further, the viability, T/C was 35.2% (second compound 10 µM, first compound 0.000999 µM); 41.3% (second compound 10 µM, first compound 0.00316 µM); 28.8% (second compound 10 µM, first compound 0.00999 µM); 26.5% (second compound 10 µM, first compound 0.0316 µM); 15.3% (second compound 10 µM, first compound 0.0999 µM); 13.7% (second compound 10 µM, first compound 0.316 µM).
`CC[C@@]1(O)C(=O)OCc2c1cc1n(c2=O)Cc2cc3c(CN(C)C)c(O)ccc3nc2-1`: the viability, T/C was 95.5% and 106% and 99.4% (compound 0.000999 µM); 97.2% and 89% and 87.9% (compound 0.00316 µM); 86% and 86.5% and 92% (compound 0.00999 µM); 68.2% and 70.6% and 66.2% (compound 0.0316 µM); 41.4% and 40.2% and 45% (compound 0.0999 µM); 37.1% and 38.9% and 35.8% (compound 0.316 µM). Moreover, under “curve of compound”, the negative-log IC50 (pIC50) was 7.14 and 7.10 and 7.13.
Regarding `CC1COCCN1c1cc(-c2ccnn2C)c2ccnc(-c3ccn[nH]3)c2n1` (stereo not given), the viability, T/C (compound 0.0316 µM) is 81% and 83.4% and 86.5%; the viability, T/C (compound 0.1 µM) was 59.5% and 53.2% and 55.1%; the viability, T/C (compound 0.316 µM) was 38.6% and 39.2% and 35.8%; the viability, T/C (compound 1 µM) is 26.8% and 24.3% and 27.8%; the viability, T/C (compound 3.16 µM) is 19.3% (2×) and 20.4%; the viability, T/C (compound 10 µM) is 18% and 15.8% and 15.7%. Further, where the note is “curve of compound”, the pIC50 is 6.77 and 6.86 and 6.85.
On to `O=C(NO)c1cnc(N2CCN(S(=O)(=O)c3ccc4ccccc4c3)CC2)nc1`, for which the viability, T/C was 75.3% and 69.1% and 84.1% (compound 0.0316 µM); 61.1% and 65.8% and 72.9% (compound 0.1 µM); 38.8% and 38.6% and 43.8% (compound 0.316 µM); 21.8% (2×) and 19.6% (compound 1 µM); 12.8% and 12.7% and 13.8% (compound 3.16 µM); 5.19% and 5.98% and 4.22% (compound 10 µM). In addition, the negative logarithm of the IC50 (pIC50) (curve of compound) was 6.75 and 6.70 and 6.60.

As a reminder, the viability, T/C is the result in the treated group divided by that in the control group, in per cent. One may read the pIC50 as the negative decadic logarithm of the IC50, by convention in mol/L.
